Experimental data reported in patent US7695725B2, “Modified free-living microbes, vaccine compositions and methods of use thereof” (Aduro Biotech, priority 2003, dated 2010).

Test system: Listeria monocytogenes
Assay: Bacterial titer / log attenuation of Listeria after compound 1 treatment
Format: cell-based
Conditions: e.g. at 1 μM
Method: A procedure was done similarly to Example 1 only using the compound β-alanine, N-(acridin-9-yl), 2-[bis(2-chloroethyl)amino]ethyl ester (Compound 1, ChemSyn, Harrisonville, Mo., see U.S. Pat. No. 6,093,725). The Listeria strains used were DP-L4056 and DP-L4017. Compound 1 (1 mM in acidic BBS (blood bank saline), 135 μl of 1.48 M H3PO4 per 100 mL BBS) was added to 5 mL of bacteria at 1×10^8 CFU/mL to concentrations of 0, 0.5, 1, 2, 5, and 10 μM and the samples incubated for 2 hours at room temperature. After the incubation, the bacterial titer and antigen presentation was assessed as per Example 1.

O=C(CCNc1c2ccccc2nc2ccccc12)OCCN(CCCl)CCCl [compound 1, β-alanine, N-(acridin-9-yl), 2-[bis(2-chloroethyl)amino]ethyl ester]
attenuation of proliferation with sufficient antigen presentation: effective
